# Measurements: PubChem BioAssay AID2060510 (Molecular Pharmacology Branch, DTP, NCI, 2025)
# Several values for one entry are separate records, joined by “and”; a condition that tells them apart may be missing. Identical values can stand only once.
# System: 439559-082-T-J2-PDC spheroids viability
# Experiment: Anticancer human tumor 439559-082-T-J2-PDC patient-derived colon adenocarcinoma cell line growth inhibition [GQUAD]
# Conditions: for viability, T/C: stronger effect = lower value
# Text: DNA G-quadruplex Stabilizer Agents in Combinations in Complex Spheroids
# A high-throughput screen of multi-cell type tumor spheroids was designed to identify active combinations of DNA G-quadruplex stabilizer agents and targeted small molecules. Complex spheroids include a stromal component modeled by human endothelial cells (HUVEC) and fibroblasts modeled by human mesenchymal stem cells (MSCs). The concentration ranges selected for each drug and investigational agent were based upon clinically achievable concentrations if the clinical Cmax of the agent was known.
# Compounds. The drugs and investigational agents: pidnarulex (CX-5461; NSC782164), APTO-253 (NSC789042), BRACO-19 (NSC847499), peposertib (NSC802822), ceralasertib (NSC780249), elimusertib (NSC800525), camonsertib (NSC841442), AZD-1390 (NSC803789), olaparib (NSC753686), talazoparib (NSC767125), ART-558 (NSC835418), sotorasib (NSC818433), MRTX-1133 (NSC836407), SN-38 (NSC673596), topotecan (NSC609699), etoposide (NSC141540), doxorubicin (NSC123127), gemcitabine (NSC613327), 5-fluorouracil (NSC19893), paclitaxel (NSC125973), vemurafenib (NSC761431), panobinostat (NSC761190), R-306465 (JNJ-16241199; NSC773264), adavosertib (NSC754352), TP-3654 (NSC805149), carboplatin (NSC241240), KSQ-4279 (NSC840948), and staurosporine (NSC755774) were obtained from the National Cancer Institute (NCI) Developmental Therapeutics Program Chemical Repository (34). The FDA-approved anticancer drug set is available from the NCI Developmental Therapeutics Program. […] The stock solutions were prepared in dimethyl sulfoxide (DMSO, Sigma-Aldrich, St. Louis, MO, cat. D2650) at 800-fold the tested concentration and stored at -70 degrees C prior to their use. All drugs and investigational agents were tested over a range starting from a high concentration at or near the clinical Cmax and decreasing in half-log increments. If the clinical Cmax for an agent had not been determined, the highest concentration tested was 10 microM.
# 2.3 Cell Culture. All cells were maintained in an incubator at 37 degrees C and 5% CO2 with 95% humidity. The PDC lines were cultured according to standard operating procedures established by the NCI PDMR. All PDCs were thawed and cultured in Matrigel-coated flasks prepared with a working solution of 1X Ham's F-12 nutrient mix, without supplementation (Invitrogen, cat. 11765054), 100 U/mL penicillin-streptomycin (Invitrogen, cat. 15140122), and 2.5% Matrigel (Corning Inc., cat. 354248) for the first three passages. The 857933-349-R-J2-PDC line was cultured in 6C/Colon 1B media, which includes advanced DMEM/F-12 (Thermo Fisher Scientific, cat. 12634028), 10 mM HEPES (Thermo Fisher Scientific, cat. 15630080), 1X GlutaMAX supplement (Thermo Fisher Scientific, cat. 35050061), 0.1 mg/mL primocin (InvivoGen, cat. ant-pm-2), 10% defined fetal bovine serum, heat inactivated (HyClone Laboratories Inc., cat. SH30070.03HI), 50% L-WRN conditioned media (ATCC, cat. CRL-3276), 1.25 mM N-Acetyl-L-cysteine (Sigma-Aldrich, cat. A9165), 10 mM nicotinamide (Sigma-Aldrich, cat. N0636), 1X B-27 supplement (Thermo Fisher Scientific, cat. 17504044), 1X N-2 supplement (Thermo Fisher Scientific, cat. 17502048), 10 microM Y-27632 dihydrochloride (Tocris Bioscience, cat. 1254), and 50 ng/mL human EGF recombinant protein (Thermo Fisher Scientific, cat. PHG0311). The 485176-168-R4-J1-PDC line was cultured in Panc media, which includes all 6C/Colon 1B media components plus 100 ng/mL human FGF-10 (Thermo Fisher Scientific, cat. 100-26), 500 nM SB-431542 (Selleckchem, cat. S1067), and gastrin (Tocris, cat. 3006).
# […]
# 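Also: spheroids exposed to the agents for 7 days before readout.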
# 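For viability, T/C in this document: percent of luminescence signal in DMSO vehicle wells taken as 100% viability.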
structure (smiles),measurement,setting,value
CC[C@@]1(O)C(=O)OCc2c1cc1n(c2=O)Cc2cc3c(CN(C)C)c(O)ccc3nc2-1 + Cc1cnc(CNC(=O)c2c(=O)c3ccc(N4CCCN(C)CC4)nc3n3c2sc2ccccc23)cn1,IC50,"curve of first compound, second compound 0.0316 µM",> 0.316 µM
same,IC50,"curve of first compound, second compound 0.1 µM",> 0.316 µM
same,IC50,"curve of first compound, second compound 0.316 µM",> 0.316 µM
same,IC50,"curve of first compound, second compound 1 µM",> 0.316 µM
same,IC50,"curve of first compound, second compound 3.16 µM",> 0.316 µM
same,IC50,"curve of first compound, second compound 10 µM",> 0.316 µM
same,"viability, T/C","second compound 0.0316 µM, first compound 0.000999 µM",98.9%
same,"viability, T/C","second compound 0.0316 µM, first compound 0.00316 µM",89.6%
same,"viability, T/C","second compound 0.0316 µM, first compound 0.00999 µM",94.6%
same,"viability, T/C","second compound 0.0316 µM, first compound 0.0316 µM",88.7%
same,"viability, T/C","second compound 0.0316 µM, first compound 0.0999 µM",82.4%
same,"viability, T/C","second compound 0.0316 µM, first compound 0.316 µM",81.9%
same,"viability, T/C","second compound 0.1 µM, first compound 0.000999 µM",91.7%
same,"viability, T/C","second compound 0.1 µM, first compound 0.00316 µM",81.5%
same,"viability, T/C","second compound 0.1 µM, first compound 0.00999 µM",96.5%
same,"viability, T/C","second compound 0.1 µM, first compound 0.0316 µM",95.8%
same,"viability, T/C","second compound 0.1 µM, first compound 0.0999 µM",83%
same,"viability, T/C","second compound 0.1 µM, first compound 0.316 µM",81.8%
same,"viability, T/C","second compound 0.316 µM, first compound 0.000999 µM",79.7%
same,"viability, T/C","second compound 0.316 µM, first compound 0.00316 µM",85.2%
same,"viability, T/C","second compound 0.316 µM, first compound 0.00999 µM",79.5%
same,"viability, T/C","second compound 0.316 µM, first compound 0.0316 µM",75.8%
same,"viability, T/C","second compound 0.316 µM, first compound 0.0999 µM",83.4%
same,"viability, T/C","second compound 0.316 µM, first compound 0.316 µM",69%
same,"viability, T/C","second compound 1 µM, first compound 0.000999 µM",73.5%
same,"viability, T/C","second compound 1 µM, first compound 0.00316 µM",70.3%
same,"viability, T/C","second compound 1 µM, first compound 0.00999 µM",74.5%
same,"viability, T/C","second compound 1 µM, first compound 0.0316 µM",79.1%
same,"viability, T/C","second compound 1 µM, first compound 0.0999 µM",80%
same,"viability, T/C","second compound 1 µM, first compound 0.316 µM",67.4%
same,"viability, T/C","second compound 3.16 µM, first compound 0.000999 µM",71.5%
same,"viability, T/C","second compound 3.16 µM, first compound 0.00316 µM",72%
same,"viability, T/C","second compound 3.16 µM, first compound 0.00999 µM",68.6%
same,"viability, T/C","second compound 3.16 µM, first compound 0.0316 µM",71.4%
same,"viability, T/C","second compound 3.16 µM, first compound 0.0999 µM",72.8%
same,"viability, T/C","second compound 3.16 µM, first compound 0.316 µM",66.9%
same,"viability, T/C","second compound 10 µM, first compound 0.000999 µM",64.3%
same,"viability, T/C","second compound 10 µM, first compound 0.00316 µM",71.8%
same,"viability, T/C","second compound 10 µM, first compound 0.00999 µM",66.6%
same,"viability, T/C","second compound 10 µM, first compound 0.0316 µM",70.7%
same,"viability, T/C","second compound 10 µM, first compound 0.0999 µM",66.4%
same,"viability, T/C","second compound 10 µM, first compound 0.316 µM",61.1%
Cc1[nH]c2ccc(F)cc2c1-c1nc2c3cccnc3c3ncccc3c2[nH]1,"viability, T/C",compound 0.0316 µM,103% [middle of 12 runs]
same,"viability, T/C",compound 0.1 µM,102% [middle of 12 runs]
same,"viability, T/C",compound 0.316 µM,100% [middle of 12 runs]
same,"viability, T/C",compound 1 µM,94.9% [middle of 12 runs]
same,"viability, T/C",compound 3.16 µM,86.4% [middle of 12 runs]
same,"viability, T/C",compound 10 µM,89.3% [middle of 12 runs]
same,IC50,"compound alone, run of 04/16/2024",> 10 µM
same,IC50,"compound alone, run of 04/22/2024",> 10 µM
C=CC(=O)N1CCN(c2nc(=O)n(-c3c(C)ccnc3C(C)C)c3nc(-c4c(O)cccc4F)c(F)cc23)C(C)C1 (stereo unspecified),"viability, T/C",compound 0.0316 µM,101% (2×) and 96.5%
same,"viability, T/C",compound 0.1 µM,101% and 91.7% and 89.6%
same,"viability, T/C",compound 0.316 µM,94.3% and 91.1% and 108%
same,"viability, T/C",compound 1 µM,110% and 96.3% and 112%
same,"viability, T/C",compound 3.16 µM,99% and 108% and 107%
same,"viability, T/C",compound 10 µM,98.8% and 96.6% and 105%
same,IC50,curve of compound,> 10 µM
Cc1cccc(N(C)C(=O)C2C(O)CCN2c2nc(C)cc(C(F)(F)F)c2C#N)c1 (stereo unspecified),"viability, T/C",compound 0.0316 µM,93.8% and 107% and 103%
same,"viability, T/C",compound 0.1 µM,105% and 93.7% and 99.7%
same,"viability, T/C",compound 0.316 µM,106% and 102% and 85.8%
same,"viability, T/C",compound 1 µM,109% and 97.2% and 108%
same,"viability, T/C",compound 3.16 µM,116% and 104% and 109%
same,"viability, T/C",compound 10 µM,88.7% and 92.6% and 98.5%
same,IC50,curve of compound,> 10 µM
CCCS(=O)(=O)Nc1ccc(F)c(C(=O)c2c[nH]c3ncc(-c4ccc(Cl)cc4)cc23)c1F,"viability, T/C",compound 0.0316 µM,96.1% and 95.7% and 105%
same,"viability, T/C",compound 0.1 µM,90.8% and 96.3% and 99.1%
same,"viability, T/C",compound 0.316 µM,94.7% and 102% and 103%
same,"viability, T/C",compound 1 µM,71.9% and 107% and 96.1%
same,"viability, T/C",compound 3.16 µM,53.8% and 108% and 106%
same,"viability, T/C",compound 10 µM,20.2% and 54.8% and 54.9%
same,IC50,curve of compound,3.43 µM and > 10 µM
